Twelve molecules from PubChem BioAssay (NCI) can be followed below.

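Where inhibition never reached the appropriate level, the endpoint shown equals the highest concentration tested. Otherwise, values were interpolated linearly from a five-concentration, 48-hour dose response in 96-well plates. At the GI50, growth is halved. TGI: total growth inhibition.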

Assay in all cases: DTP human tumour cell line panel, 48 h
The subject of test [1] is ACHN renal.
Test [2] concerns CAKI-1 renal.
Test [3] has as its system LOX IMVI melanoma.
The test system of test [4] is NCI-H460 lung.
Test [5] relates to OVCAR-3 ovarian.
The test system of test [6] is SF-295 CNS.
Test [7] concerns SK-MEL-28 melanoma.
Test [8] concerns SR leukemia.
Test [9] concerns HL-60(TB) leukemia.
In test [10] the test system is NCI-H23 lung.

For the molecule `Cc1ccc(-c2cc(-c3ccco3)c(C#N)c(=O)n2C2OC(OC(=O)c3ccccc3)C(OC(=O)c3ccccc3)C2OC(=O)c2ccccc2)cc1` (configuration not stated), the total growth inhibition concentration (TGI) in test [1], in [2], in test [3], in [4], in test [5] and in [6] was more than 100 µM throughout. Besides, the TGI in [7] and in test [8] was more than 100 µM throughout.

In the case of `O=[N+]([O-])c1cnn(C2=CNc3ccccc3N=C2)c1`, the TGI in test [1], in test [9], in test [10], in test [4], in test [5] and in test [6] was more than 100 µM throughout. Besides, the TGI in test [7] and in [8] was more than 100 µM throughout.

Consider `O=C(c1ccncc1)n1nc(-c2ccccc2)c(N=Nc2ccccc2[N+](=O)[O-])c1-c1ccccc1`, for which the TGI in test [2], in test [9], in test [10], in [5], in test [6] and in [7] was more than 100 µM throughout. Besides, in test [8], the TGI (usually the concentration giving total growth inhibition) was more than 100 µM.

`Cc1cccc(-n2c(=S)[nH]c3c(sc(=O)n3-c3ccccc3C)c2=O)c1`: the TGI in [1], in test [2], in test [9], in [10], in [4] and in test [5] was more than 100 µM in each case. The TGI in [6], in [7] and in test [8] was more than 100 µM throughout.

`COc1ccc(/C=C\c2cc(OC)c(O[Si](C)(C)C(C)(C)C)c(OC)c2)cc1`: the TGI was more than 100 µM in [1]; more than 100 µM in test [2]; more than 100 µM in test [10]; more than 100 µM in test [4]; more than 100 µM in [5]; 43.4 µM in test [7]. This molecule also gave a TGI in test [8] of 56.2 µM.

Consider `CC(=O)NC(CCCCNC(=O)NCCCl)C(=O)NCc1ccccc1` (configuration not stated), for which the TGI in test [1], in [2], in [9], in [10], in [4] and in test [5] was more than 100 µM throughout. Besides, the TGI in test [6], in test [7] and in [8] was more than 100 µM in each case.

Turning to `O=C1c2cc(Cl)ccc2-c2c1c1ccc([N+](=O)[O-])cc1c(=O)n2CCCBr`, the GI50 (usually the concentration that inhibits growth by half) is 2.42 µM in [1]; 1.72 µM in [2]; 1.26 µM in test [9]; 2.37 µM in test [3]; 8.27 µM in [10]; 0.931 µM in [4]. Also, the figures for the GI50 in test [5], in test [6] and in [7] were 36.6 µM, 2.63 µM and 33.5 µM, respectively. The TGI in [1] was 7.25 µM; in test [2], 19.3 µM; in test [9] it was 5.71 µM; in [3] it was 24 µM; in test [10] it was more than 100 µM; in [4], more than 100 µM. In addition, the TGI in test [5], in test [6] and in test [7] was more than 100 µM each time.

With `C/C(=N\N(c1ccccc1)c1ccccc1)c1c(O)cc(C)oc1=O`, the TGI in [1], in test [2], in test [3], in [10], in test [4] and in test [6] was more than 100 µM throughout. In addition, the TGI in test [7] and in [8] was more than 100 µM each time.

On to `CC1C(=O)OCC2=CCN3CCC(OC(=O)C(C)C1(C)O)C23` (configuration not stated), for which the TGI in [1], in test [2], in test [9], in [3], in test [10] and in [4] was more than 100 µM throughout. Moreover, the TGI in [5], in test [6] and in test [7] was more than 100 µM each time.

Take `Cc1cc2c(cc1C)N(C(=O)CCl)CCN2C(=O)CCl`: the GI50 in [1] is 0.638 µM; in [2] it was 1.78 µM; in test [3] it was 0.173 µM; in [10] it was 1.76 µM; in test [4], 1.7 µM; in test [5], 1.11 µM. The GI50 in [6] is 1.96 µM; in test [7], 1.56 µM; in [8], 0.421 µM. The TGI in [1] is 2.08 µM; in test [2] it was 4.08 µM; in test [3] it was 0.365 µM; in [10], 3.8 µM; in [4], 3.33 µM; in [5], 2.46 µM. The concentration for total growth inhibition (TGI) in test [6] was found to be 4.13 µM; in test [7], 2.96 µM; in test [8], 2.65 µM.

For the molecule `CCn1c2ccc(O)cc2c2c(C)c3c[n+](C)ccc3c(C)c21`, the GI50 is 8.85 µM in [1]; 65.2 µM in [2]; 40.8 µM in [9]; 8.83 µM in test [3]; 1.44 µM in test [10]; 0.752 µM in test [4]. Moreover, the values for the GI50 in test [5], in test [6] and in [7] were 3.59 µM, 0.748 µM and 2.83 µM, respectively. In addition, the TGI in test [1] is more than 100 µM; in [2], more than 100 µM; in [9] it was more than 100 µM; in [3] it was more than 100 µM; in test [10] it was 25.8 µM; in test [4], 11 µM. Moreover, the figures for the TGI in test [5], in test [6] and in test [7] were 32.4 µM, 31.4 µM and 16 µM, respectively.

As for `CCOC(=O)/C=C/C1=C(c2cccs2)c2ccccc2CC1`, the GI50 in [1] was 17.1 µM; in test [2], 43.1 µM; in test [9], 45 µM; in test [3], 15.9 µM; in test [10] it was 28.8 µM; in test [4] it was 31.1 µM. The GI50 in [5] is 29.5 µM; in [6], 38.5 µM; in [7], 26.3 µM. Besides, the TGI is 34.5 µM in test [1]; more than 100 µM in [2]; more than 100 µM in [9]; 30 µM in test [3]; 89.4 µM in [10]; more than 100 µM in test [4]. Moreover, the TGI is more than 100 µM in [5], more than 100 µM in [6] and 75 µM in test [7].
